Source: PubChem BioAssay (NCI)
Where “and” joins values, the source holds several entries; their conditions need not be identical. Identical values can stand only once.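 Method: 48-hour compound exposure of cells in 96-well plates, five concentrations, linear interpolation of endpoints. GI50 marks 50% less growth. TGI: total growth inhibition.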

Legend:
Assay in all cases: NCI tumour cell line growth inhibition, 48 h
SF-268 CNS = system: SF-268 CNS
K-562 leukemia = system: K-562 leukemia
SK-MEL-2 melanoma = system: SK-MEL-2 melanoma
UACC-62 melanoma = system: UACC-62 melanoma
ACHN renal = system: ACHN renal
EKVX NSCLC = system: EKVX NSCLC
SNB-75 CNS = system: SNB-75 CNS
KM12 colon = system: KM12 colon
A498 renal = system: A498 renal
SF-295 CNS = system: SF-295 CNS

Row | Compound | GI50 (SF-268 CNS) | TGI (SF-268 CNS) | GI50 (K-562 leukemia) | TGI (K-562 leukemia) | GI50 (SK-MEL-2 melanoma) | TGI (SK-MEL-2 melanoma) | GI50 (UACC-62 melanoma) | TGI (UACC-62 melanoma) | GI50 (ACHN renal) | TGI (ACHN renal) | GI50 (EKVX NSCLC) | TGI (EKVX NSCLC) | GI50 (SNB-75 CNS) | TGI (SNB-75 CNS) | GI50 (KM12 colon) | TGI (KM12 colon) | GI50 (A498 renal) | TGI (A498 renal) | GI50 (SF-295 CNS) | TGI (SF-295 CNS)
1 | CCCCCC(=O)O[C@]1(C(C)=O)CCC2C3CCC4=CC(=O)CC[C@]4(C)C3CC[C@@]21C (stereo not given in full) | 3.46 µM | 18 µM | 3.19 µM | 21.9 µM | 2.87 µM | 7.73 µM | 1.63 µM | 3.88 µM | 3 µM | 11.6 µM | 2.91 µM | 20.2 µM | 2.15 µM | 12.6 µM | 2.24 µM | 5.24 µM | 1.3 µM | 3.88 µM | 2.87 µM | 12.5 µM
2 | CC1NOC(=O)C1N=Nc1ccc(Cl)cc1Cl (stereo not given) |  | 81.7 µM |  | 82.5 µM |  | 75 µM |  | > 100 µM |  | 55.5 µM |  | 73.4 µM |  | 46.5 µM |  | 32.6 µM |  | 99.5 µM |  | 68.6 µM
3 | CCc1cccc(CC)c1NC(=O)/C(Cl)=C(/Cl)C(=O)O |  | 64.1 µM |  | > 94.9 µM |  | > 100 µM |  | > 66.7 µM |  | 47.6 µM |  | > 68.5 µM |  | > 81.6 µM |  | > 100 µM |  | > 100 µM |  | > 100 µM
4 | Nc1nccc(-c2c(-c3ccc(F)cc3)nn3cc(C(F)(F)F)ccc23)n1 | > 25 µM | > 25 µM | > 25 µM | > 25 µM | > 25 µM | > 25 µM | > 25 µM | > 25 µM | > 25 µM | > 25 µM | > 25 µM | > 25 µM | > 19.7 µM | > 25 µM | > 25 µM | > 25 µM | > 25 µM | > 25 µM | > 25 µM | > 25 µM
5 | [O]=[V]([OH])([OH])[OH] | > 100 µM | > 100 µM | > 100 µM | > 100 µM | > 100 µM | > 100 µM | > 100 µM | > 100 µM | > 100 µM | > 100 µM | > 100 µM | > 100 µM | > 100 µM | > 100 µM | > 100 µM | > 100 µM | > 100 µM | > 100 µM | > 100 µM | > 100 µM
6 | CN1CCN(c2c(F)cc(NC3=C(Cl)C(=O)c4ncccc4C3=O)cc2F)CC1 | 14.1 µM | 28.3 µM | 0.494 µM | > 100 µM | 13.7 µM | 28 µM | 14.8 µM | 28 µM | 1.61 µM | 2.96 µM | 14.9 µM | 33.4 µM | 10.9 µM | 23.9 µM | 16.5 µM | 33 µM | 13.4 µM | 29.2 µM | 17.2 µM | 33.5 µM
7 | Cc1cc(Br)c(NC(=O)c2c(-c3c(Cl)cccc3Cl)noc2C)c(Br)c1 | > 100 µM | > 100 µM | > 100 µM | > 100 µM | > 100 µM | > 100 µM | 14.3 µM | > 100 µM | > 100 µM | > 100 µM | > 100 µM | > 100 µM | 47.2 µM | > 100 µM | > 100 µM | > 100 µM | > 100 µM | > 100 µM | 2.15 µM | > 100 µM
8 | O=C1C2C3C=CC(C2C(=O)N1CO)C1C2C(=O)N(CO)C(=O)C2C31 (stereo not given) |  | > 79 µM |  | > 82.5 µM |  | > 100 µM |  | > 100 µM |  | > 66.6 µM |  | > 100 µM |  | > 100 µM |  | > 100 µM |  | > 100 µM |  | > 100 µM
9 | Cc1cnc(C(=O)NNc2nc3sc4c(c3c(=O)[nH]2)C(C)CCC4)cn1 (stereo not given) | 0.891 µM | > 100 µM | 2.66 µM | > 100 µM | 6.64 µM | 37.4 µM | 0.528 µM | 6.93 µM | 0.55 µM | 11 µM | 1.19 µM | 78.2 µM | 0.259 µM | 15.1 µM | 0.93 µM | 95.6 µM | 2.84 µM | 16.8 µM | 1.08 µM | 14.6 µM
10 | C[C@H](C(=O)O)C(=O)NC(=O)N(Cc1ccccc1)N=O |  | > 100 µM |  | > 100 µM |  | > 100 µM |  | > 100 µM |  | > 100 µM |  | > 100 µM |  | > 100 µM |  | > 100 µM |  | > 100 µM |  | > 100 µM
11 | CC[C@H](C)[C@H](NC(=O)[C@H]1CCCCN1C)C(=O)N(C)[C@H](C[C@@H](OC(C)=O)c1nc(C(=O)NC23CC(C(=O)OC)(C2)C3)cs1)C(C)C | 0.000937 µM and 0.00325 µM | > 32.5 µM |  | > 32.5 µM | 0.00102 µM and 0.00325 µM | 0.0347 µM | 0.000614 µM and 0.00325 µM | > 32.5 µM | 0.00806 µM and 0.00325 µM | > 32.5 µM | 0.0475 µM and 0.0175 µM | > 32.5 µM | 0.000382 µM and 0.00325 µM | > 32.5 µM | 0.00319 µM and 0.00325 µM | 6.6 µM | 0.00723 µM and 0.00325 µM | 0.277 µM | 0.00128 µM and 0.00325 µM | 
12 | CCO/C=C1\SC(=S)N(c2ccc(OCC)cc2)C1=O |  | > 100 µM |  | > 100 µM |  | > 100 µM |  | > 100 µM |  | > 100 µM |  | > 100 µM |  | > 100 µM |  | > 100 µM |  | > 100 µM |  | > 100 µM
13 | C=C(CN1CCc2[nH]c3ccc(F)cc3c2C1)c1ccc(C(=O)Nc2ccccc2N)cc1 | 3.03 µM | 8.36 µM | 1.06 µM | 14.6 µM | 1.07 µM | 8.14 µM | 2.26 µM | 5.9 µM | 3.33 µM | 11.4 µM | 5.06 µM | 19.7 µM | 2.14 µM | 7.4 µM | 0.524 µM | 2.94 µM | 1.5 µM | 4.62 µM | 3.31 µM | 11.8 µM
14 | COc1ccc2c(C(=O)O)cc3ccccc3c2c1OC |  | 41.4 µM |  | 80.6 µM |  | 94.9 µM |  | 32.5 µM |  | 29.8 µM |  | 40.8 µM |  | > 100 µM |  | 33.9 µM |  | 40.7 µM |  | > 100 µM
15 | OCCCCC#Cc1ccccc1C#Cc1cccc(C(F)(F)F)c1 | 19.1 µM | 42.5 µM | 22.5 µM | 71.5 µM | 19.7 µM | 42.1 µM | 15.9 µM | 29.5 µM | 18.3 µM | 32.4 µM | 17.9 µM | 34.7 µM | 14.6 µM | 29.3 µM | 16.2 µM | 31.3 µM | 18.2 µM | 33.1 µM | 16.5 µM | 30.9 µM
16 | Cc1noc(NC(=O)Nc2ccccc2F)c1C#N |  | > 48.9 µM |  | > 100 µM |  | > 54.9 µM |  | > 45.4 µM |  | > 46.7 µM |  | 25.1 µM |  | > 100 µM |  | > 100 µM |  | > 50.9 µM |  | > 100 µM
17 | CCCCCC/C=C\CCCCCCCCC(=O)c1cccc(OC)c1OC |  | > 100 µM |  | > 100 µM |  | > 100 µM |  | > 100 µM |  | > 100 µM |  | > 100 µM |  | > 100 µM |  | > 100 µM |  | > 100 µM |  | > 100 µM
18 | CCCCCCCCCCCC[C@@H](O)[C@H]1CC[C@H]([C@H](O)CC[C@H](O)[C@@H]2CC[C@@H](CCCCCCCC3=C[C@H](C)OC3=O)O2)O1 | 4.21 µM | > 50 µM | 3 µM | > 50 µM |  | > 50 µM | > 50 µM | > 50 µM | 2.51 µM | > 50 µM | 1.69 µM | > 50 µM |  | > 50 µM | 4.26 µM | > 50 µM |  | > 50 µM | 2.4 µM | > 50 µM
